#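 48-hour exposure; five concentrations; linearly interpolated endpoints. Abbreviation: GI50, concentration required for 50% inhibition of growth. Definition used: TGI = concentration required for complete inhibition of growth.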
# Experiments:
# Test in all cases: NCI tumour cell line growth inhibition, 48 h
# 786-0 renal = test system: 786-0 renal
# A498 renal = test system: A498 renal
# A549 NSCLC = test system: A549 NSCLC
# ACHN renal = test system: ACHN renal
# BT-549 breast = test system: BT-549 breast
# CAKI-1 renal = test system: CAKI-1 renal
# CCRF-CEM leukemia = test system: CCRF-CEM leukemia
# COLO 205 colon = test system: COLO 205 colon
# DU-145 prostate = test system: DU-145 prostate
# EKVX NSCLC = test system: EKVX NSCLC
# HCC-2998 colon = test system: HCC-2998 colon
# HCT-116 colon = test system: HCT-116 colon
# HCT-15 colon = test system: HCT-15 colon
# HL-60(TB) leukemia = test system: HL-60(TB) leukemia
# HOP-62 NSCLC = test system: HOP-62 NSCLC
# HOP-92 NSCLC = test system: HOP-92 NSCLC
# HS 578T breast = test system: HS 578T breast
# HT29 colon = test system: HT29 colon
# IGROV1 ovarian = test system: IGROV1 ovarian
# K-562 leukemia = test system: K-562 leukemia
# KM12 colon = test system: KM12 colon
# LOX IMVI melanoma = test system: LOX IMVI melanoma
# M14 melanoma = test system: M14 melanoma
# MALME-3M melanoma = test system: MALME-3M melanoma
# MCF7 breast = test system: MCF7 breast
# MDA-MB-231 breast = test system: MDA-MB-231 breast
# MDA-MB-435 = test system: MDA-MB-435
# MOLT-4 leukemia = test system: MOLT-4 leukemia
# NCI-H226 lung = test system: NCI-H226 lung
# NCI-H23 lung = test system: NCI-H23 lung
# NCI-H460 lung = test system: NCI-H460 lung
# NCI-H522 lung = test system: NCI-H522 lung
# NCI/ADR-RES ovarian = test system: NCI/ADR-RES ovarian
# OVCAR-4 ovarian = test system: OVCAR-4 ovarian
# OVCAR-5 ovarian = test system: OVCAR-5 ovarian
# OVCAR-8 ovarian = test system: OVCAR-8 ovarian
# PC-3 prostate = test system: PC-3 prostate
# RPMI-8226 leukemia = test system: RPMI-8226 leukemia
# RXF 393 renal = test system: RXF 393 renal
# SF-268 CNS = test system: SF-268 CNS
# SF-295 CNS = test system: SF-295 CNS
# SF-539 CNS = test system: SF-539 CNS
# SK-MEL-2 melanoma = test system: SK-MEL-2 melanoma
# SK-MEL-28 melanoma = test system: SK-MEL-28 melanoma
# SK-MEL-5 melanoma = test system: SK-MEL-5 melanoma
# SK-OV-3 ovarian = test system: SK-OV-3 ovarian
# SN12C renal = test system: SN12C renal
# SNB-19 CNS = test system: SNB-19 CNS
# SNB-75 CNS = test system: SNB-75 CNS
# SR leukemia = test system: SR leukemia
# SW-620 colon = test system: SW-620 colon
# T-47D breast = test system: T-47D breast
# TK-10 renal = test system: TK-10 renal
# U251 CNS = test system: U251 CNS
# UACC-257 melanoma = test system: UACC-257 melanoma
# UACC-62 melanoma = test system: UACC-62 melanoma
# UO-31 renal = test system: UO-31 renal
compound,measurement,setting,value
CC[C@]12C=CCN3CC[C@]4(C(=C(C(=O)OC)C1)Nc1cc5c(cc14)[C@@H]1[C@H](O5)[C@@H](O)[C@@]4(CC)CC(C(=O)OC)=C5Nc6cc(O)ccc6[C@@]56CCN1C46)C32 (stereo partly specified),GI50,786-0 renal,68.5 nM
same,TGI,786-0 renal,4040 nM
same,GI50,A498 renal,81.8 nM
same,TGI,A498 renal,407 nM
same,GI50,A549 NSCLC,259 nM
same,TGI,A549 NSCLC,9990 nM
same,GI50,ACHN renal,153 nM
same,TGI,ACHN renal,1100 nM
same,GI50,BT-549 breast,168 nM
same,TGI,BT-549 breast,1300 nM
same,GI50,CAKI-1 renal,39.8 nM
same,TGI,CAKI-1 renal,1590 nM
same,GI50,CCRF-CEM leukemia,94 nM
same,TGI,CCRF-CEM leukemia,> 50000 nM
same,GI50,COLO 205 colon,119 nM
same,TGI,COLO 205 colon,619 nM
same,GI50,DU-145 prostate,707 nM
same,TGI,DU-145 prostate,> 26400 nM
same,GI50,EKVX NSCLC,239 nM
same,TGI,EKVX NSCLC,> 24500 nM
same,GI50,HCC-2998 colon,75.2 nM
same,TGI,HCC-2998 colon,335 nM
same,GI50,HCT-116 colon,72.7 nM
same,TGI,HCT-116 colon,597 nM
same,GI50,HCT-15 colon,92.7 nM
same,TGI,HCT-15 colon,358 nM
same,GI50,HL-60(TB) leukemia,19.8 nM
same,TGI,HL-60(TB) leukemia,2110 nM
same,GI50,HOP-62 NSCLC,136 nM
same,TGI,HOP-62 NSCLC,> 15300 nM
same,GI50,HOP-92 NSCLC,15.7 nM
same,TGI,HOP-92 NSCLC,1050 nM
same,GI50,HS 578T breast,172 nM
same,TGI,HS 578T breast,> 50000 nM
same,GI50,HT29 colon,153 nM
same,TGI,HT29 colon,1830 nM
same,GI50,IGROV1 ovarian,112 nM
same,GI50,K-562 leukemia,47.5 nM
same,TGI,K-562 leukemia,> 50000 nM
same,GI50,KM12 colon,256 nM
same,TGI,KM12 colon,6990 nM
same,GI50,LOX IMVI melanoma,59.7 nM
same,TGI,LOX IMVI melanoma,135 nM
same,GI50,M14 melanoma,109 nM
same,TGI,M14 melanoma,9550 nM
same,GI50,MALME-3M melanoma,128 nM
same,TGI,MALME-3M melanoma,9230 nM
same,GI50,MCF7 breast,27 nM
same,TGI,MCF7 breast,> 50000 nM
same,GI50,MDA-MB-231 breast,94.3 nM
same,TGI,MDA-MB-231 breast,40200 nM
same,GI50,MDA-MB-435,106 nM
same,TGI,MDA-MB-435,1520 nM
same,GI50,MOLT-4 leukemia,134 nM
same,TGI,MOLT-4 leukemia,> 50000 nM
same,GI50,NCI-H226 lung,179 nM
same,GI50,NCI-H23 lung,165 nM
same,TGI,NCI-H23 lung,1650 nM
same,GI50,NCI-H460 lung,332 nM
same,TGI,NCI-H460 lung,8080 nM
same,GI50,NCI-H522 lung,61.4 nM
same,TGI,NCI-H522 lung,324 nM
same,GI50,NCI/ADR-RES ovarian,293 nM
same,TGI,NCI/ADR-RES ovarian,> 50000 nM
same,GI50,OVCAR-4 ovarian,213 nM
same,TGI,OVCAR-4 ovarian,> 50000 nM
same,GI50,OVCAR-5 ovarian,262 nM
same,TGI,OVCAR-5 ovarian,> 22400 nM
same,GI50,OVCAR-8 ovarian,166 nM
same,TGI,OVCAR-8 ovarian,> 16000 nM
same,GI50,PC-3 prostate,128 nM
same,TGI,PC-3 prostate,8000 nM
same,GI50,RPMI-8226 leukemia,79.8 nM
same,TGI,RPMI-8226 leukemia,990 nM
same,GI50,RXF 393 renal,162 nM
same,TGI,RXF 393 renal,977 nM
same,GI50,SF-268 CNS,352 nM
same,TGI,SF-268 CNS,> 20700 nM
same,GI50,SF-295 CNS,187 nM
same,TGI,SF-295 CNS,9340 nM
same,GI50,SF-539 CNS,181 nM
same,TGI,SF-539 CNS,8140 nM
same,GI50,SK-MEL-2 melanoma,164 nM
same,TGI,SK-MEL-2 melanoma,1580 nM
same,GI50,SK-MEL-28 melanoma,410 nM
same,TGI,SK-MEL-28 melanoma,18400 nM
same,GI50,SK-MEL-5 melanoma,217 nM
same,TGI,SK-MEL-5 melanoma,> 15300 nM
same,GI50,SK-OV-3 ovarian,172 nM
same,TGI,SK-OV-3 ovarian,1060 nM
same,GI50,SN12C renal,185 nM
same,TGI,SN12C renal,> 9990 nM
same,GI50,SNB-19 CNS,210 nM
same,TGI,SNB-19 CNS,> 25600 nM
same,GI50,SNB-75 CNS,369 nM
same,TGI,SNB-75 CNS,> 50000 nM
same,GI50,SR leukemia,40.1 nM
same,TGI,SR leukemia,4280 nM
same,GI50,SW-620 colon,167 nM
same,TGI,SW-620 colon,2270 nM
same,GI50,T-47D breast,103 nM
same,GI50,TK-10 renal,64.2 nM
same,TGI,TK-10 renal,645 nM
same,GI50,U251 CNS,195 nM
same,TGI,U251 CNS,2580 nM
same,GI50,UACC-257 melanoma,122 nM
same,TGI,UACC-257 melanoma,> 21500 nM
same,GI50,UACC-62 melanoma,85.9 nM
same,TGI,UACC-62 melanoma,40300 nM
same,GI50,UO-31 renal,93.3 nM
same,TGI,UO-31 renal,3070 nM
